Source: patent US8722849B2, “Polypeptides” (Novo Nordisk A/S, priority 2011, dated 2014)
Like-named read-outs stand apart in the source and are kept apart here. Starred links: 1 amine or outer side, 2 acyl side, 3 side chain; linkers in the order of their positions; H or OH if unused. Positions of bridges follow the written chain, without caps; N, C: chain ends. Residues, ends and D or L forms follow the SMILES beside them. *: point of attachment. C20 diacid = O=C(O)CCCCCCCCCCCCCCCCCCC(=O)*; γGlu = O=C(O)[C@H](CCC(=O)[*:2])N[*:1]; AEEA = NCCOCCOCC(=O)O

Key:
[1] = target: T1, human amylin receptor (amylin 3(a) receptor: human calcitonin receptor + RAMP-3) (Homo sapiens, UniProt O60896+P30988); assay: Assay (II)a functional CRE-luciferase assay, human amylin receptor; type: cell-based
T1 construct: expressed in transfected cells; host or cells: BHK570
T1 sequence (P30988 25-474): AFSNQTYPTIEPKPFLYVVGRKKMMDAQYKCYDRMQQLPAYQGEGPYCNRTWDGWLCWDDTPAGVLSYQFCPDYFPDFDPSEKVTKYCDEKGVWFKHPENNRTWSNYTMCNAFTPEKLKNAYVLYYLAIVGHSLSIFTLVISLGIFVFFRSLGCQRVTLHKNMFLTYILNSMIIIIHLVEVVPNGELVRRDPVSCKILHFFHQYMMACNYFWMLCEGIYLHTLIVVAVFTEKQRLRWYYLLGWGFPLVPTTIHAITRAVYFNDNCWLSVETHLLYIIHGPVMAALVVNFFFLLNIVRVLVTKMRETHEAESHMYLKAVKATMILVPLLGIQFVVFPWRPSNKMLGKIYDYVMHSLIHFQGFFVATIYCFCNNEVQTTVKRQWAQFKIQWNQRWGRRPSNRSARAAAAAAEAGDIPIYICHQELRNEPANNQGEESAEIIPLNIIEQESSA
T1 sequence (O60896 24-148 partner): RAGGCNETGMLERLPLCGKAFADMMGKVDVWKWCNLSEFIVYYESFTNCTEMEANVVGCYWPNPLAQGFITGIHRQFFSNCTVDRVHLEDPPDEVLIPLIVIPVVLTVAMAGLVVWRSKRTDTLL
From the text: 1. Luciferase Assay Outline
Activation of calcitonin and amylin (coexpression of calcitonin receptor and receptor activity modifying proteins (RAMP)) receptors lead to increased intracellular concentrations of cAMP. Consequently, transcription is activated by promoters containing multiple copies of the cAMP response element (CRE). It is thus possible to measure amylin activity by the use of a CRE luciferase reporter gene introduced into BHK cells also expressing calcitonin or amylin receptors.
A BHK570 cell line was stably transfected with the human calcitonin receptor and a CRE-responsive luciferase reporter gene. The cell line was further transfected with RAMP-3, using standard methods. This turns the calcitonin receptor into an amylin 3(a) receptor. Methotrexate, Neomycin, and Hygromycin are selection markers for luciferase, the calcitonin receptor, and RAMP-3, respectively.
To perform activity assays, BHK calcitonin (a) receptor- or amylin 3(a)-receptor/CRE-luc cells were seeded in white 96 well culture plates at a density of about 20.000 cells/well. […] Further, 50 μl/well of standard or sample in assay buffer were added. After 3 hours incubation at 37° C. and 5% CO2, the assay medium with standard or sample were removed and replaced by 100 μl/well PBS. Further, 100 μl/well LucLite™ was added. The plates were sealed and incubated at room temperature for 30 minutes. Finally, luminescence was measured on a TopCounter (Packard) in SPC (single photon counting) mode.

[2] = target: T2, human calcitonin receptor (Homo sapiens, UniProt P30988); assay: Assay (II)a functional CRE-luciferase assay, human calcitonin receptor; type: cell-based
T2 construct: expressed in transfected cells; host or cells: BHK570
T2 sequence (P30988 25-474): T1 sequence (P30988 25-474)

[3] = Assay (IV) determination of solubility; type: physicochemical
Method in brief: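 Solubility is measured across pH 3.0–8.0 by mixing a ~500 nmol/ml aqueous polypeptide stock 1:1 with 100 mM glycylglycine or bistrispropane buffers. Samples stand 18 hours at room temperature, then are centrifuged and the soluble concentration is determined by HPLC.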

[4] = Table 2, BHK amylin 3(a)-receptor/CRE-luc cells
[5] = Table 3, BHK amylin 3(a)-receptor/CRE-luc cells
[6] = Table 7, human calcitonin (CTa) receptor
[7] = Table 11, read-out: CTa receptor human EC50
[8] = pH 3, pH 3.0, read-out: Solubility pH 3.0
[9] = pH 4, pH 4.0, 18 hours at room temperature, Table 2, read-out: Solubility pH 4.0
[10] = pH 4, pH 4.0, read-out: Solubility pH 4.0
[11] = pH 5, pH 5.0, read-out: Solubility pH 5.0
[12] = pH 6, pH 6.0, read-out: Solubility pH 6.0
[13] = pH 6.5, pH 6.5, read-out: Solubility pH 6.5
[14] = pH 7, pH 7.0, 18 hours at room temperature, Table 3, read-out: Solubility pH 7.0
[15] = pH 7, pH 7.0, read-out: Solubility pH 7.0
[16] = pH 7.5, pH 7.5, read-out: Solubility pH 7.5
[17] = pH 8, pH 8.0, read-out: Solubility pH 8.0

| EC50 [1, 4] [nM] | EC50 [1, 5] [nM] | EC50 ([1]; Table 4) [nM] | EC50 ([1]; Table 6, human amylin receptor) [nM] | EC50 ([1]; Table 7, human amylin receptor) [nM] | EC50 ([1]; Table 11) [nM] | EC50 [2, 6] [nM] | EC50 [2, 7] [nM] | solubility [3, 8] [µM] | solubility [3, 9] [µM] | solubility [3, 10] [µM] | solubility [3, 11] [µM] | solubility [3, 12] [µM] | solubility [3, 13] [µM] | solubility [3, 14] [µM] | solubility [3, 15] [µM] | solubility [3, 16] [µM] | solubility [3, 17] [µM] | Structure (SMILES) | other results |
| --- | --- | --- | --- | --- | --- | --- | --- | --- | --- | --- | --- | --- | --- | --- | --- | --- | --- | --- | --- |
| 0.071 | 0.071 | 0.071 | 0.071 | 0.071 | 0.071 | 0.085 | 0.085 | > 200 | > 200 | > 200 | > 200 | > 200 | > 200 | > 200 | > 200 | > 200 | > 200 | CC[C@H](C)[C@H](NC(=O)[C@@H]1CCCN1C(=O)CNC(=O)[C@H](Cc1ccccc1)NC(=O)[C@H](CC(N)=O)NC(=O)[C@H](CCCCN)NC(=O)[C@H](CO)NC(=O)[C@H](CO)NC(=O)[C@H](Cc1c[nH]cn1)NC(=O)[C@H](Cc1c[nH]cn1)NC(=O)[C@H](CC(C)C)NC(=O)[C@H](Cc1ccccc1)NC(=O)[C@H](CCC(=O)O)NC(=O)[C@H](C)NC(=O)[C@H](CC(C)C)NC(=O)[C@H](CCCNC(=N)N)NC(=O)[C@H](CCC(N)=O)NC(=O)[C@@H](NC(=O)[C@H](C)NC(=O)[C@@H]1CSSC[C@H](NC(=O)[C@H](CCCCN)NC(=O)COCCOCCNC(=O)COCCOCCNC(=O)CC[C@H](NC(=O)CCCCCCCCCCCCCCCCCCC(=O)O)C(=O)O)C(=O)N[C@@H](CC(N)=O)C(=O)N[C@@H]([C@@H](C)O)C(=O)N[C@@H](C)C(=O)N[C@@H]([C@@H](C)O)C(=O)N1)[C@@H](C)O)C(=O)N[C@@H](CC(C)C)C(=O)N1CCC[C@H]1C(=O)N1CCC[C@H]1C(=O)N[C@H](C(=O)N[C@@H](CC(N)=O)C(=O)N[C@H](C(=O)NCC(=O)N[C@@H](CO)C(=O)N[C@@H](CC(N)=O)C(=O)N[C@H](C(=O)N1CCC[C@H]1C(N)=O)[C@@H](C)O)C(C)C)[C@@H](C)O [Example 168, N-alpha-[2-(2-{2-[2-(2-{2-[(S)-4-Carboxy-4-(19-carboxyheptadecanoylamino)butyrylamino]ethoxy}ethoxy)acetylamino]ethoxy}ethoxy)acetyl]-[Glu14,His17,Lys21,Pro37]-pramlintide] ({C20 diacid-γGlu-AEEA-AEEA}-KCNTATCATQRLAEFLHHSSKNFGPILPPTNVGSNTP-NH2; disulfide 2-7) | – |
| 0.313 | – | – | – | – | – | 0.526 | – | – | – | – | – | – | – | – | – | – | – | CC[C@H](C)[C@H](NC(=O)[C@@H]1CCCN1C(=O)CNC(=O)[C@H](Cc1ccccc1)NC(=O)[C@H](CC(N)=O)NC(=O)[C@H](CC(N)=O)NC(=O)[C@H](CO)NC(=O)[C@H](CO)NC(=O)[C@H](Cc1c[nH]cn1)NC(=O)[C@H](CCCNC(=N)N)NC(=O)[C@H](CC(C)C)NC(=O)[C@H](Cc1ccccc1)NC(=O)[C@H](CCC(=O)O)NC(=O)[C@H](C)NC(=O)[C@H](CC(C)C)NC(=O)[C@H](CCCNC(=N)N)NC(=O)[C@H](CCC(N)=O)NC(=O)[C@@H](NC(=O)[C@H](C)NC(=O)[C@@H]1CSSC[C@H](NC(=O)[C@H](CCCNC(=N)N)NC(=O)[C@H](CCC(=O)O)NC(=O)[C@H](CCC(=O)O)NC(=O)CC[C@H](NC(=O)CCCCCCCCCCCCCCCCCCC(=O)O)C(=O)O)C(=O)N[C@@H](CC(N)=O)C(=O)N[C@@H]([C@@H](C)O)C(=O)N[C@@H](C)C(=O)N[C@@H]([C@@H](C)O)C(=O)N1)[C@@H](C)O)C(=O)N[C@@H](CC(C)C)C(=O)N1CCC[C@H]1C(=O)N1CCC[C@H]1C(=O)N[C@H](C(=O)N[C@@H](CC(N)=O)C(=O)N[C@H](C(=O)NCC(=O)N[C@@H](CO)C(=O)N[C@@H](CC(N)=O)C(=O)N[C@H](C(=O)N1CCC[C@H]1C(N)=O)[C@@H](C)O)C(C)C)[C@@H](C)O [Example 155, N-alpha-[(S)-4-Carboxy-4-(19-carboxynonadecanoylamino)butyryl]-Glu-Glu-[Arg1,Glu14,Arg17,Pro37]-pramlintide] ({C20 diacid-γGlu}-EERCNTATCATQRLAEFLRHSSNNFGPILPPTNVGSNTP-NH2; disulfide 4-9 (inferred); C-terminus assumed) | solubility at 18 h ([3]; bistrispropane buffer, pH 6, pH 6.0, read-out: Solubility pH 6.0): > 200 µM; solubility at 18 h ([3]; bistrispropane buffer, pH 6.5, pH 6.5, read-out: Solubility pH 6.5): > 200 µM; solubility at 18 h ([3]; bistrispropane buffer, pH 7, pH 7.0, 18 hours at room temperature, Table 3, read-out: Solubility pH 7.0): > 200 µM; solubility at 18 h ([3]; bistrispropane buffer, pH 7, pH 7.0, read-out: Solubility pH 7.0): > 200 µM; solubility at 18 h ([3]; bistrispropane buffer, pH 7.5, pH 7.5, read-out: Solubility pH 7.5): > 200 µM; solubility at 18 h ([3]; bistrispropane buffer, pH 8, pH 8.0, read-out: Solubility pH 8.0): > 200 µM; solubility at 18 h ([3]; glycylglycine buffer, pH 3, pH 3.0, read-out: Solubility pH 3.0): > 200 µM; solubility at 18 h ([3]; glycylglycine buffer, pH 4, pH 4.0, 18 hours at room temperature, Table 2, read-out: Solubility pH 4.0): > 200 µM; solubility at 18 h ([3]; glycylglycine buffer, pH 4, pH 4.0, read-out: Solubility pH 4.0): > 200 µM; solubility at 18 h ([3]; glycylglycine buffer, pH 5, pH 5.0, read-out: Solubility pH 5.0): > 200 µM |
| 0.203 | 0.203 | 0.203 | 0.203 | 0.203 | 0.203 | 0.113 | 0.113 | > 200 | > 200 | > 200 | > 200 | > 200 | > 200 | > 200 | > 200 | > 200 | > 200 | CC[C@H](C)[C@H](NC(=O)[C@@H]1CCCN1C(=O)CNC(=O)[C@H](Cc1ccccc1)NC(=O)[C@H](CC(N)=O)NC(=O)[C@H](CCC(=O)O)NC(=O)[C@H](CO)NC(=O)[C@H](CO)NC(=O)[C@H](Cc1c[nH]cn1)NC(=O)[C@H](Cc1c[nH]cn1)NC(=O)[C@H](CC(C)C)NC(=O)[C@H](Cc1ccccc1)NC(=O)[C@H](CCC(=O)O)NC(=O)[C@H](C)NC(=O)[C@H](CC(C)C)NC(=O)[C@H](CCCNC(=N)N)NC(=O)[C@H](CCC(N)=O)NC(=O)[C@@H](NC(=O)[C@H](C)NC(=O)[C@@H]1CSSC[C@H](NC(=O)[C@H](CCCCN)NC(=O)COCCOCCNC(=O)COCCOCCNC(=O)CC[C@H](NC(=O)CCCCCCCCCCCCCCCCCCC(=O)O)C(=O)O)C(=O)N[C@@H](CC(N)=O)C(=O)N[C@@H]([C@@H](C)O)C(=O)N[C@@H](C)C(=O)N[C@@H]([C@@H](C)O)C(=O)N1)[C@@H](C)O)C(=O)N[C@@H](CC(C)C)C(=O)N1CCC[C@H]1C(=O)N1CCC[C@H]1C(=O)N[C@H](C(=O)N[C@@H](CC(N)=O)C(=O)N[C@H](C(=O)NCC(=O)N[C@@H](CO)C(=O)N[C@@H](CC(N)=O)C(=O)N[C@H](C(=O)N1CCC[C@H]1C(N)=O)[C@@H](C)O)C(C)C)[C@@H](C)O [Example 167] ({C20 diacid-γGlu-AEEA-AEEA}-KCNTATCATQRLAEFLHHSSENFGPILPPTNVGSNTP-NH2; disulfide 2-7) | – |
